Reference: patent US20080103205A1, “Pesticidal compositions and methods of use” (priority 2006, published 2008)
Read-outs that look alike come from different tables or passages of the source.

How the values were obtained:
[1] = test system: Meloidogyne incognita; test: Toxicity test, J2 juveniles of Meloidogyne incognita, 96 well micro plate; type: in vivo; conditions: Meloidogyne incognita
In short: (§1)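 J2 juveniles came from infested tomato roots and adults from culture plates, 17–30 per well, exposed to 50–400 ppm in 0.2% DMSO/tap water at room temperature. Mortality, including worms motionless for 30 sec, was scored at 24, 48, 72, 120 and 168 hr. Five replicates were Abbott-corrected against solvent control, and LC50 was estimated by probit analysis.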

[2] = test system: Caenorhabditis elegans; test: Toxicity test, adult Caenorhabditis elegans, 96 well micro plate; type: in vivo; conditions: Caenorhabditis elegans
In short: as §1

[3] = 24 h, read-out: Corrected Mortality (%)
[4] = 48 h, read-out: Corrected Mortality (%)
[5] = 72 h, read-out: Corrected Mortality (%)
[6] = 120 h, read-out: Corrected Mortality (%)
[7] = 168 h, read-out: Corrected Mortality (%)

Q: Which results are given for `O=C(O)c1cc([N+](=O)[O-])ccc1NCCCc1ccccc1` [NPPB, 5-Nitro-2-(3-phenylpropylamino)benzoic acid]?
A: mortality at 50 ppm ([1]; 24 h): 12%; mortality at 100 ppm ([1]; 24 h): 14%; mortality at 200 ppm ([1]; 24 h): 18%; mortality at 300 ppm ([1]; 24 h): 20%; mortality at 400 ppm ([1]; 24 h): 27%; mortality at 50 ppm [1, 3]: 8%; mortality at 100 ppm [1, 3]: 10%; mortality at 200 ppm [1, 3]: 15%; mortality at 300 ppm [1, 3]: 17%; mortality at 400 ppm [1, 3]: 24%; mortality at 50 ppm ([1]; 48 h): 22%; mortality at 100 ppm ([1]; 48 h): 32%; mortality at 200 ppm ([1]; 48 h): 41%; mortality at 300 ppm ([1]; 48 h): 43%; mortality at 400 ppm ([1]; 48 h): 56%; mortality at 50 ppm [1, 4]: 17%; mortality at 100 ppm [1, 4]: 28%; mortality at 200 ppm [1, 4]: 37%; mortality at 300 ppm [1, 4]: 39%; mortality at 400 ppm [1, 4]: 53%; mortality at 50 ppm ([1]; 72 h): 40%; mortality at 100 ppm ([1]; 72 h): 51%; mortality at 200 ppm ([1]; 72 h): 66%; mortality at 300 ppm ([1]; 72 h): 73%; mortality at 400 ppm ([1]; 72 h): 82%; mortality at 50 ppm [1, 5]: 33%; mortality at 100 ppm [1, 5]: 45%; mortality at 200 ppm [1, 5]: 62%; mortality at 300 ppm [1, 5]: 70%; mortality at 400 ppm [1, 5]: 80%; mortality at 50 ppm ([1]; 120 h): 62%; mortality at 100 ppm ([1]; 120 h): 73%; mortality at 200 ppm ([1]; 120 h): 90%; mortality at 300 ppm ([1]; 120 h): 97%; mortality at 400 ppm ([1]; 120 h): 100%; mortality at 50 ppm [1, 6]: 56%; mortality at 100 ppm [1, 6]: 69%; mortality at 200 ppm [1, 6]: 89%; mortality at 300 ppm [1, 6]: 97%; mortality at 400 ppm [1, 6]: 100%; mortality at 50 ppm ([1]; 168 h): 89%; mortality at 100 ppm ([1]; 168 h): 93%; mortality at 200 ppm ([1]; 168 h): 99%; mortality at 300 ppm ([1]; 168 h): 100%; mortality at 400 ppm ([1]; 168 h): 100%; mortality at 50 ppm [1, 7]: 87%; mortality at 100 ppm [1, 7]: 92%; mortality at 200 ppm [1, 7]: 99%; mortality at 300 ppm [1, 7]: 100%; mortality at 400 ppm [1, 7]: 100%; mortality at 50 ppm ([2]; 24 h): 14%; mortality at 100 ppm ([2]; 24 h): 17%; mortality at 200 ppm ([2]; 24 h): 20%; mortality at 300 ppm ([2]; 24 h): 22%; mortality at 400 ppm ([2]; 24 h): 24%; mortality at 50 ppm [2, 3]: 10%; mortality at 100 ppm [2, 3]: 14%; mortality at 200 ppm [2, 3]: 18%; mortality at 300 ppm [2, 3]: 20%; mortality at 400 ppm [2, 3]: 22%; mortality at 50 ppm ([2]; 48 h): 26%; mortality at 100 ppm ([2]; 48 h): 36%; mortality at 200 ppm ([2]; 48 h): 44%; mortality at 300 ppm ([2]; 48 h): 49%; mortality at 400 ppm ([2]; 48 h): 53%; mortality at 50 ppm [2, 4]: 22%; mortality at 100 ppm [2, 4]: 33%; mortality at 200 ppm [2, 4]: 41%; mortality at 300 ppm [2, 4]: 46%; mortality at 400 ppm [2, 4]: 51%; mortality at 50 ppm ([2]; 72 h): 47%; mortality at 100 ppm ([2]; 72 h): 62%; mortality at 200 ppm ([2]; 72 h): 73%; mortality at 300 ppm ([2]; 72 h): 80%; mortality at 400 ppm ([2]; 72 h): 84%; mortality at 50 ppm [2, 5]: 43%; mortality at 100 ppm [2, 5]: 59%; mortality at 200 ppm [2, 5]: 71%; mortality at 300 ppm [2, 5]: 78%; mortality at 400 ppm [2, 5]: 83%; mortality at 50 ppm ([2]; 120 h): 70%; mortality at 100 ppm ([2]; 120 h): 85%; mortality at 200 ppm ([2]; 120 h): 93%; mortality at 300 ppm ([2]; 120 h): 97%; mortality at 400 ppm ([2]; 120 h): 100%; mortality at 50 ppm [2, 6]: 66%; mortality at 100 ppm [2, 6]: 83%; mortality at 200 ppm [2, 6]: 92%; mortality at 300 ppm [2, 6]: 97%; mortality at 400 ppm [2, 6]: 100%; mortality at 50 ppm ([2]; 168 h): 93%; mortality at 100 ppm ([2]; 168 h): 99%; mortality at 200 ppm ([2]; 168 h): 100%; mortality at 300 ppm ([2]; 168 h): 100%; mortality at 400 ppm ([2]; 168 h): 100%; mortality at 50 ppm [2, 7]: 92%; mortality at 100 ppm [2, 7]: 99%; mortality at 200 ppm [2, 7]: 100%; mortality at 300 ppm [2, 7]: 100%; mortality at 400 ppm [2, 7]: 100%
